For experiment [1], the system named is Methicillin Resistant Staphylococcus aureus strain USA 300, NRS384. As to the kind of experiment: Minimum inhibitory concentration, broth micro-dilution (CLSI), S. aureus. The format is cell-based. The note with it: Staphylococcus aureus, MRSA / NRS 384 / USA300, 22 h, 35° C., 22 hours. The gist of the method: (§1)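 CLSI broth microdilution in cation-adjusted Mueller Hinton Broth with 0.002% Tween-80; inoculum final OD600 0.0005, 22 hours at 35° C. Ten 2-fold dilutions starting at 4 μg/mL (protocol 2) or 0.5 μg/mL (protocol 3).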

The subject of experiment [2] is Escherichia coli MC4100 harboring the IMP4213 (E. coli IMP). As to the kind of experiment: microbe, parasite or virus in culture. The format is cell-based. The note with it: Escherichia coli, 22 h, read-out: MIC (μg/mL) E. coli IMP, E. coli MC4100 IMP4213, increased outer-membrane permeability; 35° C., 22 hours. The gist of the method:
as §1

Experiment [3] has as its system Escherichia coli ATCC 25922. As to the kind of experiment: Minimum inhibitory concentration, broth micro-dilution (CLSI), E. coli. The experiment is classed as cell-based. Conditions: Escherichia coli, ATCC25922, 22 h, 35° C., 22 hours.
Experiment [4] deals with T1, SpsB (Staphylococcus aureus signal peptidase) (Staphylococcus aureus, UniProt P0A070).
T1 construct: This assay uses a suspension of Staphylococcus aureus cells as a source of SpsB instead of recombinant SpsB protein; endogenous in cells; host or cells: S. aureus, USA300 background, overexpressing SpsB (whole-cell suspension from frozen pellets)
As to the kind of experiment: cell-based. The format is biochemical. The note with it: SpsB IC50, whole-cell S. aureus (USA300 background, overexpressing SpsB) as SpsB source; fluorogenic peptide substrate, kinetic read 30 min. The gist of the method:
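Whole S. aureus cells (USA300, overexpressing SpsB) in PBS with MgCl2, CaCl2 and 0.1% Tween-80 served as enzyme source, mixed with 20 μM stock of (Dabcyl)βAla-KPAKAAE(Edans) substrate before use. Fluorescence (ex 340/em 490 nm) read kinetically over 30 min. IC50 from reaction rate versus 11-point inhibitor concentration.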

[5] abbreviates: read-out: MIC (μg/mL) S. aureus, MRSA USA 300 NRS384.
Setting [6] is: read-out: MIC (μg/mL) E. coli, E. coli ATCC 25922.
Where [7] appears, read: MRSA USA 300 NRS384, read-out: MIC (μg/mL) S. aureus.
Where [8] appears, read: E. coli ATCC 25922, read-out: MIC (μg/mL) E. coli.

≈ marks a conversion by molar mass, not a printed value. Read-outs that look alike come from different tables or passages of the source. Some results are limits rather than exact numbers.

T1 sequence (P0A070 whole entry): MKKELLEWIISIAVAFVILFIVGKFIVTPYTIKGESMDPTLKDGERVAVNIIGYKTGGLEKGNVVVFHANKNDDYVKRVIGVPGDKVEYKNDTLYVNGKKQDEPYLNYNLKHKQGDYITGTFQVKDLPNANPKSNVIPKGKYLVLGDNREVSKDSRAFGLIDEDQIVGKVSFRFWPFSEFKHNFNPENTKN

Consider `C[C@@H]1NC(=O)[C@@H](N(C)C(=O)[C@H](CCCCN)NC(=O)c2ccc(-c3ccc(Cl)cc3)cc2)c2ccc(OCCN)c(c2)-c2cc(ccc2OCCN)C[C@@H](C(=O)N[C@@H](C)C#N)NC1=O` [Compound 483], for which the MIC in experiment [1] (setting [5]) turned out to be 2 µg/mL (≈ 2.24 µM); in experiment [2], 0.5 µg/mL (≈ 0.559 µM); in experiment [3] (setting [6]) it was 48 µg/mL (≈ 53.7 µM). The molecule further returned an IC50 in experiment [4] of 6.8 nM.
As for `CCCCCCCCCCCCCC(=O)N[C@@H](CN)C(=O)N(C)[C@@H]1C(=O)N[C@@H](C)C(=O)N[C@H](C(=O)NCC#N)Cc2ccc(OCCN)c(c2)-c2cc1ccc2OCCN` [Compound 343], the MIC in experiment [1] (setting [7]) stood at 0.094 µg/mL (≈ 0.113 µM); in experiment [2], 0.063 µg/mL (≈ 0.0755 µM); in experiment [3] (setting [8]), 0.25 µg/mL (≈ 0.3 µM). In addition, in experiment [4], the IC50 amounted to 0.73 nM.
In the same order, the values of `CCCCc1ccc(-c2ccc(C(=O)N[C@@H](CN)C(=O)N(C)[C@@H]3C(=O)N[C@@H](C)C(=O)N[C@H](C(=O)NCC#N)Cc4ccc(OCCN)c(c4)-c4cc3ccc4OCCN)cc2)cc1` [Compound 341] are 0.13 µg/mL (≈ 0.151 µM), 0.031 µg/mL (≈ 0.036 µM), 0.5 µg/mL (≈ 0.581 µM) and 1.1 nM.
For `C[C@@H]1NC(=O)[C@@H](N(C)C(=O)[C@H](CCCCN)NC(=O)c2cccc(-c3ccc(Cl)cc3)c2)c2ccc(OCCN)c(c2)-c2cc(ccc2OCCN)C[C@@H](C(=O)NCC#N)NC1=O` [Compound 113], the MIC in experiment [1] (setting [5]) is 0.19 µg/mL (≈ 0.216 µM); in experiment [2], 0.13 µg/mL (≈ 0.148 µM); in experiment [3] (setting [6]) it was 32 µg/mL (≈ 36.3 µM). Moreover, inhibition in experiment [4] was half-maximal at 0.51 nM (IC50).
Taken in the same sequence, the figures for `CCCCCCCCCC(=O)N[C@H](CCC)C(=O)N[C@@H](CCN)C(=O)N(C)[C@@H]1C(=O)N[C@@H](C)C(=O)N[C@H](C(=O)NCC#N)Cc2ccc(OCCN)c(c2)-c2cc1ccc2OCCN` [Compound 353] were 0.047 µg/mL (≈ 0.0527 µM), 0.016 µg/mL (≈ 0.018 µM), 2 µg/mL (≈ 2.24 µM) and 0.82 nM.
As to `CCCCCCCCc1ccc(C(=O)N[C@@H](CCN)C(=O)N(C)[C@@H]2C(=O)N[C@@H](C)C(=O)N[C@H](C(=O)NCC#N)Cc3ccc(OCCN)c(c3)-c3cc2ccc3OCCN)c(C)c1` [Compound 339], the MIC is 0.047 µg/mL (≈ 0.0541 µM) in experiment [1] (setting [7]), 0.018 µg/mL (≈ 0.0207 µM) in experiment [2] and 0.13 µg/mL (≈ 0.15 µM) in experiment [3] (setting [8]). This molecule came in with an IC50 in experiment [4] below 0.5 nM.
In the case of `C[C@@H]1NC(=O)[C@@H](N(C)C(=O)[C@H](CCCCN)NC(=O)Cc2ccc(-c3ccc(Cl)cc3)cc2)c2ccc(OCCN)c(c2)-c2cc(ccc2OCCN)C[C@@H](C(=O)NCC#N)NC1=O` [Compound 117], the MIC was 0.13 µg/mL (≈ 0.145 µM) in experiment [1] (setting [5]), 0.5 µg/mL (≈ 0.559 µM) in experiment [2] and above 64 µg/mL in experiment [3] (setting [6]). Also, the midpoint of inhibition in experiment [4], the IC50, lay at 2 nM.
For the molecule `CCCCCCCc1ccc(C(=O)N[C@@H](CN)C(=O)N(C)[C@@H]2C(=O)N[C@@H](C)C(=O)N[C@H](C(=O)NCC#N)Cc3ccc(OCCN)c(c3)-c3cc2ccc3OCCN)c(C)c1` [Compound 202], the MIC is 0.031 µg/mL (≈ 0.0369 µM) in experiment [1] (setting [7]), 0.016 µg/mL (≈ 0.019 µM) in experiment [2] and 0.25 µg/mL (≈ 0.298 µM) in experiment [3] (setting [8]). The same molecule had an IC50 in experiment [4] of 0.66 nM.
Turning to `CCCCCCCCC(O)C(=O)NC(CO)C(=O)N(C)C1C(=O)NC(C)C(=O)NC(C(=O)NCC#N)Cc2ccc(OCCN)c(c2)-c2cc1ccc2OCCN` (single isomer, unassigned) [Compound 393-P1], the values for the MIC in experiment [1] (setting [5]), in experiment [2] and in experiment [3] (setting [6]) were 2 µg/mL (≈ 2.52 µM), 1 µg/mL (≈ 1.26 µM) and above 64 µg/mL, respectively. In experiment [4], this molecule registered an IC50 of 5.9 nM.
Turning to `CCCCCCCOc1c(F)cc(C(=O)N[C@@H](CCN)C(=O)N(C)[C@@H]2C(=O)N[C@@H](C)C(=O)N[C@H](C(=O)NCC#N)Cc3ccc(OCCN)c(c3)-c3cc2ccc3OCCN)cc1Cl` [Compound 293], the MIC is 0.063 µg/mL (≈ 0.0693 µM) in experiment [1] (setting [7]), below 0.0039 µg/mL in experiment [2] and 0.38 µg/mL (≈ 0.418 µM) in experiment [3] (setting [8]). Moreover, 1.5 nM corresponded to half-maximal inhibition in experiment [4] (IC50).
As for `CCCCc1ccc(C(=O)N[C@@H](CCC(N)=O)C(=O)N(C)[C@@H]2C(=O)N[C@@H](C)C(=O)N[C@H](C(=O)NCC#N)Cc3ccc(OCCN)c(c3)-c3cc2ccc3OCCN)c(C)c1` [Compound 245], the figures for the MIC in experiment [1] (setting [7]), in experiment [2] and in experiment [3] (setting [8]) were 1 µg/mL (≈ 1.19 µM), 0.38 µg/mL (≈ 0.452 µM) and above 64 µg/mL, respectively. Moreover, the IC50 in experiment [4] is 6.3 nM.
Regarding `CCCCCCCCCC(=O)NCC(=O)N(C)[C@@H]1C(=O)N[C@@H](C)C(=O)N[C@H](C(=O)NCC#N)Cc2ccc(OCCN)c(c2)-c2cc1ccc2OCCN` [Compound 463], the results for the MIC in experiment [1] (setting [7]), in experiment [2] and in experiment [3] (setting [8]) were 0.5 µg/mL (≈ 0.668 µM), 0.5 µg/mL (≈ 0.668 µM) and above 64 µg/mL, respectively. In experiment [4], the IC50 is 3.2 nM.
In the case of `CCCCCc1ccc(C(=O)N[C@@H](CCN)C(=O)N(C)[C@@H]2C(=O)N[C@@H](C)C(=O)N[C@H](C(=O)NCC#N)Cc3ccc(OCCN)c(c3)-c3cc2ccc3OCCN)c(C)c1` [Compound 196], the figures for the MIC in experiment [1] (setting [7]), in experiment [2] and in experiment [3] (setting [8]) were 0.094 µg/mL (≈ 0.114 µM), 0.013 µg/mL (≈ 0.0157 µM) and 0.67 µg/mL (≈ 0.811 µM), respectively. Moreover, the midpoint of inhibition in experiment [4], the IC50, lay at 1.1 nM.
In the case of `C[C@@H]1NC(=O)[C@@H](N(C)C(=O)[C@H](CCCCN)NC(=O)c2ccc(Oc3ccc(Cl)cc3)cc2)c2ccc(OCCN)c(c2)-c2cc(ccc2OCCN)C[C@@H](C(=O)NCC#N)NC1=O` [Compound 116], the results for the MIC in experiment [1] (setting [5]), in experiment [2] and in experiment [3] (setting [6]) were 0.13 µg/mL (≈ 0.145 µM), 0.063 µg/mL (≈ 0.0703 µM) and 12 µg/mL (≈ 13.4 µM), respectively. In experiment [4], this molecule came in with a half-inhibitory concentration (IC50) of 1.3 nM.
As to `CCCCCCCCc1ccc(C(=O)N[C@@H](CCN)C(=O)N(C)[C@@H]2C(=O)N[C@@H](C)C(=O)N[C@H](C(=O)NCC#N)Cc3ccc(OCCN)c(c3)-c3cc2ccc3OCCN)c(S(C)(=O)=O)c1` [Compound 212], the MIC in experiment [1] (setting [7]) was 0.031 µg/mL (≈ 0.0333 µM); in experiment [2], 0.047 µg/mL (≈ 0.0504 µM); in experiment [3] (setting [8]), 2 µg/mL (≈ 2.15 µM). In experiment [4], this molecule displayed an IC50 of 0.62 nM.
For `C[C@@H]1NC(=O)[C@@H](N(C)C(=O)[C@H](CCN)NC(=O)c2ccc(-c3ccc(-c4ccccc4)cc3)cc2)c2ccc(OCCN)c(c2)-c2cc(ccc2OCCN)C[C@@H](C(=O)NCC#N)NC1=O` [Compound 122], the results for the MIC in experiment [1] (setting [5]), in experiment [2] and in experiment [3] (setting [6]) were 0.063 µg/mL (≈ 0.0705 µM), 0.031 µg/mL (≈ 0.0347 µM) and 0.25 µg/mL (≈ 0.28 µM), respectively. In experiment [4], this molecule returned an IC50 of 1.6 nM.
As to `CCCCCCCOc1ccc(C(=O)N[C@@H](CCCN)C(=O)N(C)[C@@H]2C(=O)N[C@@H](C)C(=O)N[C@H](C(=O)NCC#N)Cc3ccc(OCCN)c(c3)-c3cc2ccc3OCCN)c(Cl)c1` [Compound 282], the figures for the MIC in experiment [1] (setting [7]), in experiment [2] and in experiment [3] (setting [8]) were 0.016 µg/mL (≈ 0.0177 µM), 0.0078 µg/mL (≈ 0.00862 µM) and 0.25 µg/mL (≈ 0.276 µM), respectively. In experiment [4], this molecule displayed an IC50 of 0.71 nM.
In the same order, the values of `CCCCCCCCc1cnc(C(=O)N[C@@H](CCN)C(=O)N(C)[C@@H]2C(=O)N[C@@H](C)C(=O)N[C@H](C(=O)NCC#N)Cc3ccc(OCCN)c(c3)-c3cc2ccc3OCCN)c(C)c1` [Compound 187] are 0.063 µg/mL (≈ 0.0725 µM), 0.047 µg/mL (≈ 0.0541 µM), 2 µg/mL (≈ 2.3 µM) and 0.74 nM.
Consider `C[C@@H]1NC(=O)[C@@H](N(C)C(=O)[C@H](CCCCN)NC(=O)c2ccc(-c3ccc(-c4ccccc4)cc3)cc2)c2ccc(OCCN)c(c2)-c2cc(ccc2OCCN)C[C@@H](C(=O)NCC#N)NC1=O` [Compound 118], for which the MIC in experiment [1] (setting [5]) stood at 0.063 µg/mL (≈ 0.0683 µM); in experiment [2] it was 0.031 µg/mL (≈ 0.0336 µM); in experiment [3] (setting [6]), 0.75 µg/mL (≈ 0.813 µM). In experiment [4], this molecule registered an IC50 of 1.4 nM.
In the case of `Cc1cc(C2CCCCC2)ccc1C(=O)N[C@@H](CCN)C(=O)N(C)[C@@H]1C(=O)N[C@@H](C)C(=O)N[C@H](C(=O)NCC#N)Cc2ccc(OCCN)c(c2)-c2cc1ccc2OCCN` [Compound 431], the MIC in experiment [1] (setting [7]) amounted to 0.063 µg/mL (≈ 0.0752 µM); in experiment [2] it was 0.023 µg/mL (≈ 0.0274 µM); in experiment [3] (setting [8]), 0.88 µg/mL (≈ 1.05 µM). In experiment [4], this molecule gave an IC50 of 0.77 nM.

(Values after patent publication US20180327367A1, “MACROCYCLIC BROAD SPECTRUM ANTIBIOTICS” (priority 2015, published 2018).)
